Measured values from patent publication US20150258059A1, “ANTIMICROBIAL AND RADIOPROTECTIVE COMPOUNDS” (BioDiem, Ltd, priority 2001, published 2015).
Like-named read-outs stand apart in the source and are kept apart here. Marks after values point to notes of the source that are not given here.

Experiments:
Candida albicans B-45 = test: Sensitivity of pathogenic fungi; format: cell-based; conditions: Inoculation 5 × 10^4
[1] = tested on: Staphylococcus aureus M-209; test: Sensitivity of strains: suppression of growth; format: cell-based; conditions: Compound (1) 1.0%; antibiotics disc method
Candida albicans = test: M38-P microdilution MIC/MFC; format: cell-based; conditions: Table 16, 24 h, 35° C.
Fusarium graminearum = test: microbe, parasite or virus in culture; format: cell-based; conditions: 48 h
[2] = tested on: S. aureus-clinical isolate 1; test: microbe, parasite or virus in culture; format: cell-based
Source text: (§1) NCCLS-USA Standard Method—Broth microdilution (or macrodilution) (Mueller-Hinton).
(§2) Inoculum 1-4×10^4 cfu (or −4×10^5 cfu). Ciprofloxacin test control. Chlorhexidine values added for disinfectant and antiseptic activity comparison.

Acinetobacter B-681 = test: Agar diffusion assay
[3] = tested on: Salmonella paratyphi M-16469; test: Sensitivity of strains: suppression of growth; format: cell-based; conditions: Compound (1) 1.0%; antibiotics disc method
[4] = tested on: Klebsiella pneumoniae M-A21; test: Sensitivity of strains: suppression of growth; format: cell-based; conditions: Compound (1) 1.0%; antibiotics disc method
Cryptococcus neoformans = test: M38-P microdilution MIC/MFC; format: cell-based; conditions: Cryptococcus neoformans, Table 16, 24 h, 35° C., read-out: MIC
Epidermophyton floccosum [5] = test: NCCLS broth macro-dilution MIC/MFC (RPMI); format: cell-based; conditions: Table 10, 7 day, 30° C.
S. aureus = test: MIC in increasing concentrations of plasma; format: cell-based; conditions: Staphylococcus aureus
Source text: (§3) […]. Serum binding is significant in drug distribution and bioavailability.
(§4) […]. Bactericidal activity is much more affected than inhibitory activity.

Streptococcus pyogenes = test: MIC in increasing concentrations of plasma; format: cell-based
Source text: as §3, §4

Klebsiella pneumoniae = test: Agar plug diffusion, zone of retardation; conditions: plug impregnated at 0.5%
Bacillus subtilis = test: Rate of kill, viable counts; conditions: in 2 h
Epidermophyton floccosum [6] = test: M38-P microdilution MIC/MFC; format: cell-based; conditions: Table 16, Dermatophytes
[7] = tested on: six bacterial test cultures; format: cell-based
Bacteroides fragilis = test: NCCLS broth microdilution MIC/MBC; format: cell-based; conditions: for MIC: Bacteroides fragilis
Haemophilus influenzae = test: NCCLS broth microdilution MIC/MBC; format: cell-based
[8] = tested on: Staphylococci epidermidis B-513; test: Agar diffusion assay
Clostridium perfringens = test: microbe, parasite or virus in culture; format: cell-based; conditions: 48 h
Rhodotorula rubra = test: NCCLS broth macro-dilution MIC/MFC (RPMI); format: cell-based; conditions: Table 10, 4 day, 30° C.
Aspergillus fumigatus [9] = test: M38-P microdilution MIC/MFC; format: cell-based; conditions: Table 16, 48 h, 35° C.
Aspergillus fumigatus [10] = test: NCCLS broth macro-dilution MIC/MFC (RPMI); format: cell-based; conditions: Table 10, 7 day, 30° C.
Campylobacter spp. = test: NCCLS broth microdilution MIC/MBC; format: cell-based; conditions: Table 9, 48 h
Source text: as §1, §2

Clostridium difficile = test: NCCLS broth microdilution MIC/MBC; format: cell-based; conditions: Clostridioides difficile; Table 9
Source text: as §1, §2

[11] = tested on: Acinetobacter calcoaceticus RMIT; test: NCCLS broth microdilution MIC/MBC; format: cell-based; conditions: for MIC: Acinetobacter calcoaceticus
Source text: as §1, §2

Klebsiella oxytoca = test: NCCLS broth microdilution MIC/MBC; format: cell-based; conditions: for MIC: Klebsiella oxytoca
Source text: as §1, §2

[12] = tested on: Neisseria meningitidis M-A72; test: Sensitivity of strains: suppression of growth; format: cell-based; conditions: Compound (1) 1.0%; antibiotics disc method
[13] = tested on: Salmonella typhimurium museum strain 727; test: Impregnated agar serial double dilutions; conditions: meat peptone agar
[14] = Table 19, 24 H, 35° C., O2-MICRO METHOD

C/C(=C\c1ccc2c(c1)OCO2)[N+](=O)[O-] [Compound (1)]
+: Suppression of Growth (+/−) [1] | Suppression of Growth (+/−) [3] | Suppression of Growth (+/−) [4] | Suppression of Growth (+/−) [12]
4 in 2 h: Log reduction in viable count (Bacillus subtilis; 512 μg/mL)
3.8 in 2 h: Log reduction in viable count (Bacillus subtilis; 256 μg/mL)
35# mm: Diameter of zone of Growth inhibition (Acinetobacter B-681; Concentration in disc 1.0%)
0.5 µg/mL: MIC (Epidermophyton floccosum [5]; Epidermophyton floccosum, 168 h) | MIC (Epidermophyton floccosum [6]; Epidermophyton floccosum)
32 µg/mL: MIC (S. aureus; 20% plasma in MHB) | MIC (Streptococcus pyogenes; 20% plasma in MHB, read-out: MIC) | MMC (Bacteroides fragilis; Table 9, 48 h) | MMC (Bacteroides fragilis; Table 17, 2 or 3 replicates) | MMC (Clostridium perfringens; Table 9) | MMC (Aspergillus fumigatus [9]) | MMC (Aspergillus fumigatus [10])
0.5%: Minimal % Compound (1) giving complete inhibition of test culture [13]
32# mm: Diameter of zone of Growth inhibition (Acinetobacter B-681; Concentration in disc 0.1%) | Diameter of zone of Growth inhibition ([8]; Concentration in disc 0.1%)
1 µg/mL: MIC (Cryptococcus neoformans)
4 µg/mL: MIC (Fusarium graminearum; Fusarium graminearum) | MIC (S. aureus; 0% plasma in MHB) | MIC (S. aureus; 1% plasma in MHB) | MIC (Streptococcus pyogenes; 0% plasma in MHB, read-out: MIC) | MIC (Streptococcus pyogenes; 1% plasma in MHB, read-out: MIC) | MIC (Clostridium difficile)
0.125 µg/mL: MIC (Haemophilus influenzae; Haemophilus influenzae, Table 9, 35° C., 24 hours, read-out: MIC) | MIC (Haemophilus influenzae; Haemophilus influenzae, Table 17, 2 or 3 replicates, read-out: MIC) | MMC (Haemophilus influenzae; Table 9, 35° C., 24 hours) | MMC (Haemophilus influenzae; Table 17, 2 or 3 replicates) | MIC (Haemophilus influenzae; [14]) | MMC (Haemophilus influenzae; [14])
64 µg/mL: MIC (Streptococcus pyogenes; 50% plasma in MHB, read-out: MIC)
5.17: Average zone of retardation [7]
5: Size of zone of retardation of the growth (Klebsiella pneumoniae)
5 × 10^6: Number of microbes: Retardation (Candida albicans B-45; 0.1%) | Number of microbes: Retardation (Candida albicans B-45; 0.5%)
0: Number of microbes: Growth (Candida albicans B-45; 0.1%) | Number of microbes: Growth (Candida albicans B-45; 0.5%) | Number of microbes: Growth (Candida albicans B-45; 2.0%)
16 µg/mL: MIC ([2]; Staphylococcus aureus, 24 h) | MMC ([2]; Table 9, 35° C., 24 hours) | MMC ([2]; Table 17, 2 or 3 replicates) | MMC (Epidermophyton floccosum [5]) | MIC (S. aureus; 10% plasma in MHB) | MIC (Streptococcus pyogenes; 10% plasma in MHB, read-out: MIC) | MMC (Epidermophyton floccosum [6]) | MIC (Bacteroides fragilis; Table 9, 48 h) | MIC (Bacteroides fragilis; Table 17, 2 or 3 replicates) | MIC (Clostridium perfringens; Clostridium perfringens)
256 µg/mL: MIC (Streptococcus pyogenes) | MMC ([11]; Table 9, 35° C., 24 hours) | MMC ([11]; Table 17, 2 or 3 replicates) | MMC (Klebsiella oxytoca; Table 9, 35° C., 24 hours) | MMC (Klebsiella oxytoca; Table 17, 2 or 3 replicates)
5 × 10^4: Number of microbes: Retardation (Candida albicans B-45; 2.0%)
38# mm: Diameter of zone of Growth inhibition (Acinetobacter B-681; Concentration in disc 2.0%) | Diameter of zone of Growth inhibition ([8]; Concentration in disc 2.0%)
128 µg/mL: MIC (S. aureus; 50% plasma in MHB) | MIC (S. aureus; 100% plasma in MHB) | MIC (Campylobacter spp.; Campylobacter) | MMC (Campylobacter spp.) | MIC ([11]; Table 9, 35° C., 24 hours) | MIC ([11]; Table 17, 2 or 3 replicates) | MIC (Klebsiella oxytoca; Table 9, 35° C., 24 hours) | MIC (Klebsiella oxytoca; Table 17, 2 or 3 replicates)
34# mm: Diameter of zone of Growth inhibition ([8]; Concentration in disc 1.0%)
8 µg/mL: MIC (Candida albicans; Candida albicans, read-out: MIC) | MMC (Candida albicans) | MMC (Fusarium graminearum; Table 16, M38-P, 35° C.) | MIC (S. aureus; 2.5% plasma in MHB) | MIC (S. aureus; 5% plasma in MHB) | MIC (Streptococcus pyogenes; 2.5% plasma in MHB, read-out: MIC) | MIC (Streptococcus pyogenes; 5% plasma in MHB, read-out: MIC) | MIC (Rhodotorula rubra; Rhodotorula, 96 h) | MMC (Rhodotorula rubra) | MIC (Aspergillus fumigatus [9]; Aspergillus fumigatus) | MIC (Aspergillus fumigatus [10]; Aspergillus fumigatus, 168 h)
